US20160039767A1, “PYRAZOLE DERIVATIVES AS PRMT1 INHIBITORS AND USES THEREOF” (EPIZYME, INC., priority 2013, published 2016)
Read-outs that look alike come from different tables or passages of the source.

Columns and labels:
[1] = molecular target: T1, PRMT1 (Homo sapiens, UniProt Q99873); experiment: PRMT1 Biochemical Assay (3H-SAM Flashplate, histone H4 peptide substrate); conditions: Biochemical IC50 (Numerical, μM) PRMT1, single experiment or average of multiple experiments, Table 2a
T1 construct: GST-tagged PRMT1; made in house; host or cells: High Five insect cells (baculovirus, pFastBacI)
Excerpt: S-adenosylmethionine (SAM), S-adenosylhomocysteine (SAH), bicine, Tween20, dimethylsulfoxide (DMSO), bovine skin gelatin (BSG), and Tris(2-carboxyethyl)phosphine hydrochloride solution (TCEP) were purchased from Sigma-Aldrich at the highest level of purity possible. ^3H-SAM was purchase from American Radiolabeled Chemicals with a specific activity of 80 Ci/mmol. 384-well streptavidin Flashplates were purchased from PerkinElmer.
Recombinant baculovirus were generated according to Bac-to-Bac kit instructions (Life Technologies). Protein over-expression was accomplished by infecting exponentially growing High Five insect cell culture at 1.5×10^6 cell/ml with 1:100 ratio of virus. Infections were carried out at 27° C. for 48 hours, harvested by centrifugation, and stored at −80° C. for purification.
GST-tagged PRMT1 was eluted with 50 mM Tris, 2 mM glutathione, pH 7.8, dialysed in buffer A and concentrated to 1 mg/mL.
General Procedure for PRMT1 Enzyme Assays on Peptide Substrates.
The assays were all performed in a buffer consisting of 20 mM Bicine (pH=7.6), 1 mM TCEP, 0.005% BSG, and 0.002% Tween 20, prepared on the day of use. […] DMSO (1 ul) was added to Columns 11, 12, 23, 24, rows A-H for the maximum signal control and 1 ul of SAH, a known product and inhibitor of PRMT1, was added to columns 11, 12, 23, 24, rows I-P for the minimum signal control. A cocktail (40 ul) containing the PRMT1 enzyme was added by Multidrop Combi (Thermo-Fisher). The compounds were allowed to incubate with PRMT1 for 30 min at room temperature, then a cocktail (10 ul) containing SAM and peptide was added to initiate the reaction (final volume=51 ul). […] The assays were stopped by the addition of non-radiolabeled SAM (10 ul) to a final concentration of 300 uM, which dilutes the ^3H-SAM to a level where its incorporation into the peptide substrate is no longer detectable. […] The plates were then read in a PerkinElmer TopCount plate reader to measure the quantity of ^3H-labeled peptide bound to the Flashplate surface, measured as disintegrations per minute (dpm) or alternatively, referred to as counts per minute (cpm).
Where dpm=disintegrations per minute, cmpd=signal in assay well, and min and max are the respective minimum and maximum signal controls.
Where top and bottom are the normally allowed to float, but may be fixed at 100 or 0 respectively in a 3-parameter fit. The Hill Coefficient normally allowed to float but may also be fixed at 1 in a 3-parameter fit. Y is the % inhibition and X is the compound concentration.

[2] = test system: RKO cells; experiment: RKO Methylation Assay (In Cell Western for mono-methyl arginine and DNA content); assay type: cell-based; conditions: Homo sapiens
Excerpt: RKO adherent cells were purchased from ATCC (American Type Culture Collection), Manassas, Va., USA. DMEM/Glutamax medium, penicillin-streptomycin, heat inactivated fetal bovine serum, 0.05% trypsin and D-PBS were purchased from Life Technologies, Grand Island, N.Y., USA. Odyssey blocking buffer, 800CW goat anti-rabbit IgG (H+L) antibody, and Licor Odyssey infrared scanner were purchased from Licor Biosciences, Lincoln, Nebr., USA. Mono-methyl arginine antibody was purchased from Cell Signaling Technology, Danvers, Mass., USA. Methanol was purchased from VWR, Franklin, Mass., USA. 10% Tween 20 was purchased from KPL, Inc., Gaithersburg, Md., USA. DRAQ5 was purchased from Biostatus Limited, Leicestershire, UK.
RKO adherent cells were maintained in growth medium (DMEM/Glutamax medium supplemented with 10% v/v heat inactivated fetal bovine serum and 100 units/mL penicillin-streptomycin) and cultured at 37° C. under 5% CO2.
Cell Treatment, in Cell Western (ICW) for Detection of Mono-Methyl Arginine and DNA Content.
Compound (100 nL) from a 96-well source plate was added directly to 384 well cell plate. Plates were incubated at 37° C., 5% CO2 for 72 hours. After three days of incubation, plates were brought to room temperature outside of the incubator for ten minutes and blotted on paper towels to remove cell media. 50 μL of ice cold 100% methanol was added directly to each well and incubated for 30 min at room temperature. After 30 min, plates were transferred to a Biotek EL406 plate washer and washed 2 times with 100 μL per well of wash buffer (1×PBS). Next 60 μL per well of Odyssey blocking buffer (Odyssey Buffer with 0.1% Tween 20 (v/v)) were added to each plate and incubated 1 hour at room temperature. Blocking buffer was removed and 20 μL per well of primary antibody was added (mono-methyl arginine diluted 1:200 in Odyssey buffer with 0.1% Tween 20 (v/v)) and plates were incubated overnight (16 hours) at 4° C. Plates were washed 5 times with 100 µL per well of wash buffer. Next 20 μL per well of secondary antibody was added (1:200 800CW goat anti-rabbit IgG (H+L) antibody, 1:1000 DRAQ5 (Biostatus limited) in Odyssey buffer with 0.1% Tween 20 (v/v)) and incubated for 1 hour at room temperature. The plates were washed 5 times with 100 μL per well wash buffer then 2 times with 100 μL per well of water. Plates were allowed to dry at room temperature then imaged on the Licor Odyssey machine which measures integrated intensity at 700 nm and 800 nm wavelengths. Both 700 and 800 channels were scanned.
First, the ratio for each well was determined by:
Each plate included fourteen control wells of DMSO only treatment (minimum activation) as well as fourteen control wells for maximum activation treated with 20 μM of a reference compound. The average of the ratio values for each control type was calculated and used to determine the percent activation for each test well in the plate. Reference compound was serially diluted three-fold in DMSO for a total of nine test concentrations, beginning at 20 μM. Percent activation was determined and EC30 curves were generated using triplicate wells per concentration of compound.

[3] = RKO cells, 72 hours, mono-methyl arginine, class symbols, Table 3, read-out: In Cell Western data EC30
[4] = RKO cells, 72 hours, mono-methyl arginine, single experiment or average of multiple experiments, Table 3a, read-out: In Cell Western data (Numerical, μM) EC30
[5] = RKO, 72 h, read-out: In Cell Western data (Numerical, μM) EC30
[6] = RKO, 72 h, read-out: In Cell Western data EC30

T1 sequence (Q99873 with tags, fused parts or gaps): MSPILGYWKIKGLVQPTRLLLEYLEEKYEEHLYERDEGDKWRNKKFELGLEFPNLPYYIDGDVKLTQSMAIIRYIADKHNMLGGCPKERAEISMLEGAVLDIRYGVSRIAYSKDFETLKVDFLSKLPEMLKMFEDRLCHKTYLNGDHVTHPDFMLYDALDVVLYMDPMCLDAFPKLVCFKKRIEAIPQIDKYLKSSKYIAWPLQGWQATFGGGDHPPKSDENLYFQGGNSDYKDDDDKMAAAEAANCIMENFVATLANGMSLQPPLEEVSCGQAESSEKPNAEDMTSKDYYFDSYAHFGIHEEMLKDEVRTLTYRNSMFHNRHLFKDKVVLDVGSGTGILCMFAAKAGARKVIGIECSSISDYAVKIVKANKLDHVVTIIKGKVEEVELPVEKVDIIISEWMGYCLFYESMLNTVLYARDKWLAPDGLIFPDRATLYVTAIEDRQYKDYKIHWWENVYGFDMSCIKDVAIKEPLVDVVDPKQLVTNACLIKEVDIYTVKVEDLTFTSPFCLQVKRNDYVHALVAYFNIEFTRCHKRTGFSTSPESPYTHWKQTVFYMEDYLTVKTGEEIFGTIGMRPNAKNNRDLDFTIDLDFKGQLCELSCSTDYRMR

| Structure (SMILES) | IC50 [1] | EC30 [2, 3] | EC30 [2, 4] | EC30 [2, 5] | EC30 [2, 6] |
| --- | --- | --- | --- | --- | --- |
| CNCCN(C)Cc1n[nH]cc1-c1cc(OCCOC)cc(C(F)(F)F)c1 [Compound 30] | 0.109 µM | 3.01 to 12 µM | 13.1 µM |  |  |
| CNCCN(C)Cc1c[nH]nc1-c1ccc(CC(C)C)c(C(F)(F)F)c1 [Compound 34] | 0.00444 µM |  |  | 0.955 µM | < 3 µM |
| CNCCN(C)Cc1c[nH]nc1-c1cc(Cl)c(OCC2CCC2)c(C(F)(F)F)c1 [Compound 35] | 0.00431 µM |  |  | 0.694 µM | < 3 µM |
| CNCCN(C)Cc1c[nH]nc1-c1cc(Oc2ccccc2)cc(C(F)(F)F)c1 [Compound 36] | 0.0123 µM | < 3 µM | 2.18 µM |  |  |
| CNCCN(C)Cc1c[nH]nc1-c1cc(OCc2ccccc2)cc(C(F)(F)F)c1 [Compound 37] | 0.0185 µM | 3.01 to 12 µM | 5 µM |  |  |
| CNCCN(C)Cc1c[nH]nc1-c1cc(Oc2ccncc2)cc(C(F)(F)F)c1 [Compound 38] | 0.138 µM | 3.01 to 12 µM | 8.58 µM |  |  |
| CNCCN(C)Cc1c[nH]nc1-c1cc(Cl)c(OCC2CC2)c(C(F)(F)F)c1 [Compound 41] | 0.00636 µM |  |  | 2.39 µM | < 3 µM |
| CNCCN(C)Cc1c[nH]nc1-c1cc(OCC2CCC2)cc(C(F)(F)F)c1 [Compound 44] | 0.0132 µM |  |  | 4.52 µM | 3.01 to 12 µM |
| CNCCN(C)Cc1c[nH]nc1-c1cc(OCC2CCOCC2)cc(C(F)(F)F)c1 [Compound 46] | 0.0282 µM |  |  | 2.62 µM | < 3 µM |
| CCC(CC)Oc1cc(-c2n[nH]cc2CN(C)CCNC)cc(C(F)(F)F)c1 [Compound 47] | 0.0135 µM | < 3 µM | 2.67 µM |  |  |
| CNCCN(C)Cc1c[nH]nc1-c1cc(OCCCC(F)(F)F)cc(C(F)(F)F)c1 [Compound 48] | 0.0303 µM | 3.01 to 12 µM | 4.2 µM |  |  |
| CNCCN(C)Cc1c[nH]nc1-c1cc(OCCCC(C)=O)cc(C(F)(F)F)c1 [Compound 49] | 0.0366 µM | 3.01 to 12 µM | 3.36 µM |  |  |
| CNCCN(C)Cc1c[nH]nc1-c1cc(OCCc2ccccc2OC)cc(C(F)(F)F)c1 [Compound 50] | 0.0138 µM | 3.01 to 12 µM | 4.37 µM |  |  |
| CNCCN(C)Cc1c[nH]nc1-c1cc(Oc2cccnc2)cc(C(F)(F)F)c1 [Compound 51] | 0.0513 µM | 3.01 to 12 µM | 6.9 µM |  |  |
| CNCCN(C)Cc1c[nH]nc1-c1cc(Oc2ccccn2)cc(C(F)(F)F)c1 [Compound 52] | 0.0359 µM | 3.01 to 12 µM | 4.44 µM |  |  |
| CNCCN(C)Cc1c[nH]nc1-c1cc(C)c(OCC2CCC2)c(C(F)(F)F)c1 [Compound 58] | 0.00706 µM |  |  | 0.547 µM | < 3 µM |
| CNCCN(C)Cc1c[nH]nc1-c1cc(C)c(OC2CCOCC2)c(C(F)(F)F)c1 [Compound 59] | 0.0316 µM |  |  | 1.37 µM | < 3 µM |
| CNCCN(C)Cc1c[nH]nc1-c1cc(OCCOC)c(F)c(C(F)(F)F)c1 [Compound 64] | 0.104 µM |  |  | 13.2 µM | > 12 µM |
| CNCCN(C)Cc1c[nH]nc1-c1cc(C)c(OCC2CCOCC2)c(C(F)(F)F)c1 [Compound 65] | 0.0471 µM |  |  | 1.45 µM | < 3 µM |
| CNCCN(C)Cc1c[nH]nc1-c1cc(C)c(OC2COC2)c(C(F)(F)F)c1 [Compound 66] | 0.00756 µM |  |  | 0.724 µM | < 3 µM |
